According to patent US20070270475A1, “4-Methoxy-Pyrrolidine-2-Carboxylic Acid Compounds and Derivatives Thereof as Hepatitis C Virus Inhibitors” (priority 2004, published 2007):

The compounds below were run on Huh-7 HCV replicon cells (sub-line 5-15; genotype 1b) (assay: Replicon ELISA cell based assay, genotype 1b (sub-line 5-15)). Conditions: Hepatitis C virus, Huh-7 genotype 1b replicon sub-line 5-15, 72 hours.
Design: species or system HCV genotype 1b
Method: (§1) Replicon ELISA Cell Based Assay
100 μL of medium containing 10% FCS were added to each well of clear, flat-bottomed 96 well microplates, excepting wells in the top row. Test compound was diluted in assay medium to twice the final required starting concentration from a 40 mM stock solution in DMSO. 200 μL of the starting dilution were introduced into two wells each in the top row and doubling dilutions made down the plate by the sequential transfer of 100 μL aliquots with thorough mixing in the wells; the final 100 μL were discarded. The two bottom rows were not used for compound dilutions. Huh-7 HCV replicon cell monolayers nearing confluency were stripped from growth flasks with versene-trypsin solution and the cells were resuspended in assay medium at either 2×10^5 cells/mL (sub-line 5-15; genotype 1b; Lohmann, V., Korner, F., Koch, J-O., Herian, U., Thielmann, L. and Bartenschlager, R., 1999, Science, 285, pp 110-113) or at 3×10^5 cells/mL (genotype 1a; Gu, B., Gates, A.T., Isken, O., Behrens, S. E. and Sarisky, R. T., J. Virol., 2003, 77, 5352-5359). 100 μL of cell suspension were added to all wells and the plates incubated at 37° C. for 72 hours in a 5% CO2 atmosphere.
Following incubation, the assay medium was aspirated from the plates. The cell sheets were washed by gentle immersion in phosphate buffered saline (PBS), which was then aspirated off, and fixed with acetone:methanol (1:1) for 5 minutes. Following a further wash with PBS, 100 μL of ELISA diluent (PBS+0.05% v/v Tween 20+2% w/v skimmed milk powder) were added to all wells and the plates incubated at 37° C. for 30 minutes on an orbital platform. The diluent was removed and each well then received 50 μL of a 1/200 dilution of anti-HCV specific, murine, monoclonal antibody (either Virostat #1872 or #1877), except for wells in one of the compound-free control rows which received diluent alone to act as negative controls. The plates were incubated at 37° C. for 2 hours and washed 3 times with PBS/0.05% Tween 20, then 50 μL of horseradish peroxidase conjugated, anti-mouse, rabbit polyclonal serum (Dako #P0260), diluted 1/1000, were added to all wells. The plates were incubated for a further hour, the antibody removed and the cell sheets washed 5 times with PBS/Tween and blotted dry. The assay was developed by the addition of 50 μL of ortho-phenylenediamine/peroxidase substrate in urea/citrate buffer (SigmaFast, Sigma #P-9187) to each well, and colour allowed to develop for up to 15 minutes. The reaction was stopped by the addition of 25 μL per well of 2 M sulphuric acid and the plates were read at 490 nm on a Fluostar Optima spectrophotometer.
The substrate solution was removed and the plates were washed in tap water, blotted dry and the cells stained with 5% carbol fuchsin in water for 30 minutes. The stain was discarded and the cell sheets washed, dried and examined microscopically to assess cytotoxicity.
The absorbance values from all compound-free wells that had received both primary and secondary antibodies were averaged to obtain a positive control value. The mean absorbance value from the compound-free wells that had not received the primary antibody was used to provide the negative (background) control value. The readings from the duplicate wells at each compound concentration were averaged and, after the subtraction of the mean background from all values, were expressed as a percentage of the positive control signal. The quantifiable and specific reduction of expressed protein detected by the ELISA in the presence of a drug can be used as a measure of replicon inhibition. GraFit software (Erithacus Software Ltd.) was used to plot the curve of percentage inhibition against compound concentration and derive the 50% inhibitory concentration (IC50) for the compound.

Row | Compound | IC50
1 | COC[C@H]1C[C@@](CC(C)C)(C(=O)O)N(C(=O)c2ccc(C(C)(C)C)c(OC)c2)[C@H]1c1nccs1 (racemic) [Compound A, rel-(2S,4S,5R)-2-isobutyl-1-(3-methoxy-4-tert-butylbenzoyl)-4-methoxymethyl-5-(1,3-thiazol-2-yl)pyrrolidine-2-carboxylic acid, reference compound] | 0.15 to 10 µM
2 | COC[C@H]1C[C@@](Cc2ccccc2)(C(=O)O)N(C(=O)c2ccc(C(C)(C)C)c(OC)c2)[C@H]1c1nccs1 (racemic) [Compound E, rel-(2R,4S,5R)-2-benzyl-1-(3-methoxy-4-tert-butylbenzoyl)-4-methoxymethyl-5-(1,3-thiazol-2-yl)-pyrrolidine-2-carboxylic acid, reference compound] | 0.15 to 10 µM
3 | COC[C@H]1C[C@@](Cc2cscn2)(C(=O)O)N(C(=O)c2ccc(C(C)(C)C)c(OC)c2)[C@H]1c1ncc(C)s1 (racemic) [Example 1, rel-(2R,4S,5R)-1-(3-Methoxy-4-tert-butylbenzoyl)-4-(methoxymethyl)-5-(5-methyl-1,3-thiazol-2-yl)-2-(1,3-thiazol-4-ylmethyl)pyrrolidine-2-carboxylic acid] | < 0.15 µM
4 | COC[C@H]1C[C@@](Cc2cscn2)(C(=O)O)N(C(=O)c2ccc(C(C)(C)C)c(OC)c2)[C@H]1c1nccs1 (racemic) [Example 3, rel-(2R,4S,5R)-1-(3-Methoxy-4-tert-butylbenzoyl)-4-(methoxymethyl)-5-(1,3-thiazol-2-yl)-2-(1,3-thiazol-4-ylmethyl)pyrrolidine-2-carboxylic acid] | < 0.15 µM
5 | COC[C@H]1C[C@@](Cc2ccsn2)(C(=O)O)N(C(=O)c2ccc(C(C)(C)C)c(OC)c2)[C@H]1c1nccs1 (racemic) [Example 4, rel-(2R,4S,5R)-1-(3-Methoxy-4-tert-butylbenzoyl)-4-(methoxymethyl)-5-(1,3-thiazol-2-yl)-2-(1,2-thiazol-3-ylmethyl)pyrrolidine-2-carboxylic acid] | < 0.15 µM
6 | COC[C@H]1C[C@@](Cn2cccn2)(C(=O)O)N(C(=O)c2ccc(C(C)(C)C)c(OC)c2)[C@H]1c1nccs1 (racemic) [Example 6, rel-(2R,4S,5R)-1-(3-Methoxy-4-tert-butylbenzoyl)-4-(methoxymethyl)-2-(1H-pyrazol-1-ylmethyl)-5-(1,3-thiazol-2-yl)pyrrolidine-2-carboxylic acid] | < 0.15 µM
7 | COC[C@H]1C[C@@](Cc2nccs2)(C(=O)O)N(C(=O)c2ccc(C(C)(C)C)c(OC)c2)[C@H]1c1ncc(C)s1 (racemic) [Example 8, rel-(2R,4S,5R)-1-(3-Methoxy-4-tert-butylbenzoyl)-4-(methoxymethyl)-5-(5-methyl-1,3-thiazol-2-yl)-2-(1,3-thiazol-2-ylmethyl)pyrrolidine-2-carboxylic acid] | 0.15 to 10 µM
8 | COC[C@H]1C[C@@](Cc2ccsn2)(C(=O)O)N(C(=O)c2ccc(C(C)(C)C)c(OC)c2)[C@H]1c1ncc(C)s1 (racemic) [Example 9, rel-(2R,4S,5R)-1-(3-Methoxy-4-tert-butylbenzoyl)-4-(methoxymethyl)-5-(5-methyl-1,3-thiazol-2-yl)-2-(1,2-thiazol-3-ylmethyl)pyrrolidine-2-carboxylic acid] | < 0.15 µM
9 | COC[C@H]1C[C@@](Cn2cccn2)(C(=O)O)N(C(=O)c2ccc(C(C)(C)C)c(OC)c2)[C@H]1c1ncc(C)s1 (racemic) [Example 10, rel-(2R,4S,5R)-1-(3-Methoxy-4-tert-butylbenzoyl)-4-(methoxymethyl)-5-(5-methyl-1,3-thiazol-2-yl)-2-(1H-pyrazol-1-ylmethyl)pyrrolidine-2-carboxylic acid] | < 0.15 µM
10 | COC[C@H]1C[C@@](Cn2cccn2)(C(=O)O)N(C(=O)c2ccc(C(C)(C)C)c(OC)c2)[C@H]1c1nccs1 (single isomer, unassigned) [Example 7] | < 0.15 µM
11 | COCC1CC(CC(C)C)(C(=O)O)N(C(=O)c2ccc(C(C)(C)C)c(OC)c2)C1c1ncc(C)s1 (single isomer, unassigned; enantiomer a) [Compound D, reference compound] | 0.15 to 10 µM
12 | COC[C@H]1C[C@@](Cc2cscn2)(C(=O)O)N(C(=O)c2ccc(C(C)(C)C)c(OC)c2)[C@H]1c1ncc(C)s1 (single isomer, unassigned; enantiomer a) [Example 2] | < 0.15 µM
13 | COC[C@H]1C[C@@](Cc2ccsn2)(C(=O)O)N(C(=O)c2ccc(C(C)(C)C)c(OC)c2)[C@H]1c1nccs1 (single isomer, unassigned; enantiomer a) [Example 5] | < 0.15 µM
14 | COC[C@H]1C[C@@](Cn2cccn2)(C(=O)O)N(C(=O)c2ccc(C(C)(C)C)c(OC)c2)[C@H]1c1ncc(C)s1 (single isomer, unassigned; enantiomer a) [Example 11] | < 0.15 µM
15 | COC[C@H]1C[C@@](Cc2cscn2)(C(=O)O)N(C(=O)c2ccc(C(C)(C)C)c(OC)c2)[C@H]1c1nccs1 (single isomer, unassigned; enantiomer a) [Example 12] | < 0.15 µM
16 | COC[C@H]1C[C@@](CC(C)C)(C(=O)O)N(C(=O)c2ccc(C(C)(C)C)c(OC)c2)[C@H]1c1nccs1 [Compound B, (2S,4S,5R)-2-isobutyl-1-(3-methoxy-4-tert-butylbenzoyl)-4-methoxymethyl-5-(1,3-thiazol-2-yl)pyrrolidine-2-carboxylic acid, reference compound] | 0.15 to 10 µM

The compounds below were run on 11-7 cell line (NS2-5B) HCV replicon (assay: Replicon ELISA cell based assay, genotype 1b, 11-7 cell line (NS2-5B)). Conditions: Hepatitis C virus; 11-7 cell line (NS2-5B) used instead of the 5-15 cell line.
Design: species or system HCV genotype 1b
Method: as §1
100 μL of medium containing 10% FCS were added to each well of clear, flat-bottomed 96 well microplates, excepting wells in the top row. Test compound was diluted in assay medium to twice the final required starting concentration from a 40 mM stock solution in DMSO. 200 μL of the starting dilution were introduced into two wells each in the top row and doubling dilutions made down the plate by the sequential transfer of 100 μL aliquots with thorough mixing in the wells; the final 100 μL were discarded. The two bottom rows were not used for compound dilutions. […]
Following incubation, the assay medium was aspirated from the plates. […] The reaction was stopped by the addition of 25 μL per well of 2 M sulphuric acid and the plates were read at 490 nm on a Fluostar Optima spectrophotometer. […]
The absorbance values from all compound-free wells that had received both primary and secondary antibodies were averaged to obtain a positive control value. The mean absorbance value from the compound-free wells that had not received the primary antibody was used to provide the negative (background) control value. The readings from the duplicate wells at each compound concentration were averaged and, after the subtraction of the mean background from all values, were expressed as a percentage of the positive control signal. […]

Row | Compound | IC50
17 | COC[C@H]1C[C@@](CC(C)C)(C(=O)O)N(C(=O)c2ccc(C(C)(C)C)c(OC)c2)[C@H]1c1ncc(C)s1 (racemic) [Compound C, rel-(2S,4S,5R)-2-isobutyl-1-(3-methoxy-4-tert-butylbenzoyl)-4-methoxymethyl-5-(5-methyl-1,3-thiazol-2-yl)pyrrolidine-2-carboxylic acid, reference compound] | 0.15 to 10 µM
